Data on 2 compounds can be found in patent US20150259403A1, “Methods and Pharmaceutical Compositions for Treatment of Gastrointestinal Stromal Tumors” (INSERM (INSTITUT NATIONAL DE LA SANTÉ ET DE LA RECHERCHE …, priority 2012, published 2015).

This assay has as its system RBPMS2 transcript level in GIST882 cells. Nature of the assay: RBPMS2 transcript level by quantitative RT-PCR in GIST882 cells after inhibitor treatment. Type of assay: cell-based, human.

SMILES strings stand for the structures. “Also recorded” adds a separate entry of the source.

Description: For quantitative RT-PCR analysis, gene expression levels were measured using the LightCycler technology (Roche Diagnostics). […] Each sample was assayed in three independent experiments in triplicate. Expression levels were determined with the LightCycler analysis software (version 3.5) relative to standard curves. Data were represented as the mean level of gene expression relative to the expression of the reference gene HPRT (Roche Diagnostic). For cell culture experiments, RNA isolation was done with the RNeasy Mini kit (Qiagen) and quantitative RT-PCR was performed using Power Sybergreen (Applied biosystems). Data were represented as the mean level of gene expression relative to the expression of the reference genes ABL, TTC1 and UBC for the comparison of RBPMS2 expression between different cell lines and GAPDH and ACTIN for GIST882 cells, which were treated with either Imatinib or U0126.
The human GIST cell line GIST882 was maintained in DMEM (GIBCO) supplemented with 10% Fetal Bovine Serum (FBS), 2% Penicilline-Streptomycin (Lonza) and incubated with 1 μM of Imatinib (inhibitor of KIT activity) (LC Laboratory) or 5 μM of U0126 (MEK inhibitor) (Sigma-Aldrich), as previously described (Gromova et al., 2011).

On to `Cc1ccc(NC(=O)c2ccc(CN3CCN(C)CC3)cc2)cc1Nc1nccc(-c2cccnc2)n1` [Imatinib], for which, for the setting “1 μM Imatinib vs DMSO control, 6, 24 and 48 h”, the “RBPMS2 transcript (mRNA) level” value is listed as “No significant changes; also recorded: not influenced”.
As to `N#CC(=C(/N)Sc1ccccc1N)/C(C#N)=C(\N)Sc1ccccc1N` [U0126], the “RBPMS2 transcript (mRNA) level” value (5 μM U0126 vs DMSO control, 6, 24 and 48 h) is “No significant changes; also recorded: not influenced”.
